# Measurements published in patent publication US20020086862A1, “Novel compounds” (AstraZeneca AB, priority 1998, published 2002).
row,Compound,melting point [°C]
1,"Cc1ccc(Cn2nc(-c3ccccc3Cl)[nH]c2=S)cc1 [Example 50, 5-(2-Chlorophenyl)-1,2-dihydro-2-(4-methylphenyl)methyl-3H-1,2,4-triazole-3-thione]",162 to 163
2,"CC(C)(C)c1ccc(Cn2nc(-c3ccccc3Cl)[nH]c2=S)cc1 [Example 51, 5-(2-Chlorophenyl)-1,2-dihydro-2-[(4(1,1-dimethylethyl)phenyl)methyl]-3H-1,2,4-triazole-3-thione]",211 to 215
3,"S=c1[nH]c(-c2ccccc2Cl)nn1Cc1cccc(Oc2ccccc2)c1 [Example 52, 5-(2-Chlorophenyl)-1,2-dihydro-2-[(3-phenyloxy)phenylmethyl]-3H-1,2,4-triazole-3-thione]",137 to 138
4,"FC(F)(F)c1ccc(Cn2nc(-c3ccccc3Cl)[nH]c2=S)cc1 [Example 53, 5-(2-Chlorophenyl)-1,2-dihydro-2-[[4-(trifluoromethyl)phenyl]methyl]-3H-1,2,4-triazole-3-thione]",167 to 168
5,COc1ccc(Cn2nc(-c3ccccc3Cl)[nH]c2=S)cc1 [Example 54],153 to 154
6,"S=c1[nH]c(-c2ccc(Oc3ccccc3)cc2)nn1Cc1cccc(Cl)c1 [Example 55, 2-[(3-Chlorophenyl)methyl]-5-(4-phenoxyphenyl)-1,2-dihydro-3H-1,2,4-triazole-3-thione]",183 to 184
7,"S=c1[nH]c(-c2cccnc2)nn1Cc1cccc(Cl)c1 [Example 56, 2-[(3-Chlorophenyl)methyl]-5-(3-pyridinyl)-1,2-dihydro-3H-1,2,4-triazole-3-thione]",208 to 209
8,"S=c1[nH]c(-c2ccccc2)nn1Cc1cccc(Cl)c1 [Example 57, 2-[(3-Chlorophenyl)methyl]-5-phenyl-1,2-dihydro-3H-1,2,4-triazole-3-thione]",213
9,"Fc1cccc(Cn2nc(-c3ccccc3Cl)[nH]c2=S)c1 [Example 58, 5-(2-Chlorophenyl)-1,2-dihydro-2-[(3-fluorophenyl)methyl]-3H-1,2,4-triazole-3-thione]",125 to 126
10,"S=c1[nH]c(-c2ccccc2Cl)nn1Cc1ccccc1I [Example 59, 5-(2-Chlorophenyl)-1,2-dihydro-2-[(2-iodophenyl)methyl]-3H-1,2,4-triazole-3-thione]",189 to 190
11,Cc1ccc(C)c(Cn2nc(-c3ccccc3Cl)[nH]c2=S)c1 [Example 60],166 to 167
12,"Fc1ccc(F)c(Cn2nc(-c3ccccc3Cl)[nH]c2=S)c1 [Example 61, 5-(2-Chlorophenyl)-1,2-dihydro-2-[(2,5-difluorophenyl)methyl]-3H-1,2,4-triazole-3-thione]",161 to 163
13,"O=[N+]([O-])c1ccc(-c2nn(Cc3cccc(Cl)c3)c(=S)[nH]2)cc1 [Example 62, 2-[(3-Chlorophenyl)methyl]-5-(4-nitrophenyl)-1,2-dihydro-3H-1,2,4-triazole-3-thione]",256 to 258
14,"S=c1[nH]c(-c2cncnc2)nn1Cc1cccc(Cl)c1 [Example 63, 2-[(3-Chlorophenyl)methyl]-5-(pyrrndin-5-yl) 1,2-dihydro-3H-1,2,4-triazole-3-thione]",204 to 207
15,"N#Cc1cccc(Cn2nc(-c3ccccc3Cl)[nH]c2=S)c1 [Example 64, 5-(2-Chlorophenyl)-1,2-dihydro-2-[(3-cyanophenyl)methyl]-3H-1,2,4-triazole-3-thione]",161 to 163
16,"O=[N+]([O-])c1ccc(Cn2nc(-c3ccccc3Cl)[nH]c2=S)cc1 [Example 65, 5-(2-Chlorophenyl)-1,2-dihydro-2-[(4-nitrophenyl)methyl]-3H-1,2,4-triazoe-3-thione]",182 to 183
17,"S=c1[nH]c(-c2ccccc2Cl)nn1CCc1ccccc1 [Example 66, 5-(2-Chlorophenyl)-1,2-dihydro-2-(2-phenyl)ethyl-3H-1,2,4-triazole-3-thione]",131 to 133
